# Source: ChEMBL document CHEMBL3396985, “Nanomolar inhibitors of Mycobacterium tuberculosis glutamine synthetase 1: synthesis, biological evaluation and X-ray crystallographic studies” (Bioorg Med Chem Lett, 2015)
# Activity calls are given as the source filed them. The calls are words filed in the database; no cut-off is given here.
# Columns and labels:
# HepG2 = test: Cytotoxicity against human HepG2 cells after 40 hrs by celltiter Glo assay; type: cell-based; conditions: HepG2, 40 h
# [1] = system: Mycobacterium tuberculosis; test: Antimycobacterial activity against Mycobacterium tuberculosis assessed as inhibition of microbial proliferation after 6 days by cell titer blue reagent based assay; type: functional; conditions: 144 h
# [2] = Inhibition of Mycobacterium tuberculosis glutamine synthetase 1 assessed as reduction in ADP formation incubated 1 hr in presence of glutamate, ammonium chloride and ATP
# [3] = Lipophilicity, log D of the compound; type: physicochemical; conditions: octanol/water
# [4] = system: Mycobacterium tuberculosis; test: microbe, parasite or virus in culture; conditions: H37Rv ATCC 25618
# Description: Antimycobacterial activity against Mycobacterium tuberculosis H37Rv ATCC 25618 assessed as inhibition of microbial proliferation
# [5] = system: Mycobacterium tuberculosis; test: ATP competitive inhibition of Mycobacterium tuberculosis glutamine synthetase 1 assessed as reduction in ADP formation incubated 1 hr in presence of glutamate, ammonium chloride and ATP
SMILES,IC50 (HepG2) [µM],IC80 [1] [µM],MIC [1] [µM],IC50 [2] [µM],logD [3],MIC [4] [µM],inhibition [5]
O=c1c2nccn2c2c(n1C1CC1)-c1cccc(-c3ccccn3)c1C2,> 30,> 30,> 30,0.456,,,
CC(C)Cn1c2c(n3ccnc3c1=O)Cc1c(-c3cccnc3)cccc1-2,> 30,> 30,> 30,0.066,,,
O=c1[nH]c2c(n3ccnc13)Cc1c(Br)cccc1-2,> 30,> 30,> 30,> 0.03,1.77,,
Cn1c2c(n3ccnc3c1=O)Cc1c(-c3ccccc3)cccc1-2,> 30,> 30,> 30,0.17,2.25,,
COc1cccc(-c2cccc3c2Cc2c-3[nH]c(=O)c3nccn23)c1,> 30,> 30,> 30,0.051,1.87,,
O=c1[nH]c2c(n3ccnc13)Cc1c(-c3cccnc3)cccc1-2,> 30,29,29,0.031,0.26,,
O=c1[nH]c2c(n3ccnc13)Cc1c-2cccc1-c1cccc2ncccc12,> 30,> 30,> 30,7,1.02,,
C=CCCn1c2c(n3ccnc3c1=O)Cc1c(-c3cccnc3)cccc1-2,> 30,> 30,> 30,0.007,,,
CN(C)CCCn1c2c(n3ccnc3c1=O)Cc1c(-c3ccccn3)cccc1-2,> 30,> 30,> 30,0.857,,,
C[S@](=N)(=O)CC[C@H](N)C(=O)O,,,,,,10,
COc1cccc(-c2cccc3c2Cc2c-3n(CCCN(C)C)c(=O)c3nccn23)c1,15,> 30,> 30,0.084,,,
O=c1c2nccn2c2c(n1Cc1ccccc1)-c1cccc(-c3ccccc3)c1C2,20,29,29,0.663,3.33,,
CN(C)CCCn1c2c(n3ccnc3c1=O)Cc1c(-c3cccnc3)cccc1-2,> 30,> 30,> 30,0.131,,,
CC(=O)Nc1cccc2c1Cc1c-2[nH]c(=O)c2nccn12,> 30,> 30,> 30,2.1,,,
O=c1[nH]c2c(n3ccnc13)Cc1c(-c3ccccc3)cccc1-2,> 30,> 30,> 30,0.031,3.52,,Active
O=c1[nH]c2c(n3ccnc13)Cc1c(-c3cccc(Cl)c3)cccc1-2,15,22,22,0.61,2.38,,
COCCn1c2c(n3ccnc3c1=O)Cc1c(-c3ccccc3)cccc1-2,23,> 30,> 30,0.219,,,
C=CCn1c2c(n3ccnc3c1=O)Cc1c(-c3ccccc3)cccc1-2,> 30,> 30,> 30,0.333,2.7,,
